Test results published in patent US20080012929A1, “AZO DYE, HEAT-SENSITIVE TRANSFER RECORDING INK SHEET, HEAT-SENSITIVE TRANSFER RECORDING METHOD, COLOR TONER, INKJET INK AND COLOR FILTER” (FUJIFILM Corporation, priority 2006, published 2008).

Columns and labels:
[1] = Solubility of dye when preparing the ink sheet dye-providing layer-coating composition; type: physicochemical; design: key: A: the dye easily dissolves; B: the dye dissolves; C: the dye is sparingly soluble, but dissolves; settings: methyl ethyl ketone/toluene (1/1), polyvinylbutyral resin
Method: A polyester film of 6.0 μm in thickness (trade name: Lumirror, manufactured by Toray Industries, Inc.), a back surface of which had been subjected to a heat resistant lubricating treatment with a 1 μm thick thermosetting acrylic resin, was used as a support. On the front surface of the film, the following dye-providing layer-coating composition was coated by a wire bar coating so that a dry thinness of the dye-providing layer became 1 μm. Thus, Ink sheet 1 was prepared.
Solubility of these dyes contained in these ink sheets were evaluated according to the following three grades: • A: the dye easily dissolves. • B: the dye dissolves. • C: the dye is sparingly soluble, but dissolves.

[2] = Light stability (fastness to light) of the dye image under Xenon light irradiation; type: physicochemical; settings: residual ratio of Status A reflection density (initial 1.0) after Xenon light (17000 lux) for 7 days
Method: Next, each of the thus-image-recorded heat-sensitive transfer image-receiving materials was subjected to irradiation with Xenon light (17000 lux) for 7 days, to examine light stability (fastness to light) of the dye image. Status A reflection densities after irradiation were measured in the portions indicating Status A reflection density of 1.0, and a stability of the image was evaluated in terms of a residual ratio (percentage) based on the reflection density before irradiation, according to the following three grades: • A: 80% or more, but 100% or less • B: 60% or more, but less than 80% • C: less than 60%

Row | Solubility of dye [1] | Light fastness [2] | SMILES
1 | A | A (80% or more, but 100% or less) | CCCCCn1nc(C(C)(C)C)c(N=Nc2ccc([N+](=O)[O-])cc2)c1N [(5)]
2 | A | A (80% or more, but 100% or less) | CC(C)Cn1nc(C(C)(C)C)c(N=Nc2ccc([N+](=O)[O-])cc2)c1N [(7)]
3 | A | A (80% or more, but 100% or less) | CCC(C)n1nc(C(C)(C)C)c(N=Nc2ccc([N+](=O)[O-])cc2)c1N (stereo not drawn) [(8)]
4 | A | A (80% or more, but 100% or less) | CC(C)CCn1nc(C(C)(C)C)c(N=Nc2ccc([N+](=O)[O-])cc2)c1N [(9)]
5 | A | C (less than 60%) | CCN(CCOc1ccc(C2CCCCC2)cc1)c1ccc(C=C(C#N)C#N)c(C)c1 [Dye for Comparison 2, reference compound]
6 | B | A (80% or more, but 100% or less) | CCCCN(CCCC)C(=O)c1ccc2c(c1)C(=O)C(c1nc3ccc(C(C)C)cc3cc1O)C2=O (stereo not drawn) [Dye for Comparison 3, reference compound]
